Measurements reported in patent US5302398A, “Gastroresistant pharmaceutical formulations for oral administration containing salts of bile acids” (Alfa Wassermann S.p.A., priority 1991, dated 1994).
Counter-ions that a name gives are not always drawn.

What was measured:
[1] = pH of 1% (w/v) aqueous solution of the salt; format: physicochemical; conditions: 1% (w/v) in water
Procedure: The sodium and potassium salts of the ursodeoxycholic acid, whose 1% (w/v) aqueous solutions show pH values respectively equal to 7.80 and 7.90, are prepared in a similar manner.
20 Ml of a 0.5 M aqueous solution (10 mmoles) of 1-(2-hydroxyethyl)pyrrolidine are added under stirring to a suspension containing 3.92 g (10 mmoles) of ursodeoxycholic acid in 50 ml of water prolonging the stirring until complete solubilization. The obtained solution is then freeze-dried obtaining with quantitative yield a white powder corresponding to the salt in object.
The N-methyl-D-glucamine and L-arginine salts of the ursodeoxycholic acid, whose 1% (w/v) aqueous solutions show pH values respectively equal to 8.06 and 7.75, are prepared in a similar manner.
10 Ml of a 1 M aqueous solution (10 mmoles) of choline bicarbonate are added under stirring to a suspension containing 3.92 g (10 mmoles) of ursodeoxycholic acid in 50 ml of water prolonging the stirring until complete solubilization.

[2] = intestinal bacterial flora; pH lower than 8.4; cited from earlier work

Structure (SMILES)	pH value of a 1% (w/v) aqueous solution [1]	biotransformation of the unabsorbed portion [2]
C[C@H](CCC(=O)O)[C@H]1CC[C@H]2[C@@H]3[C@@H](O)C[C@@H]4C[C@H](O)CC[C@]4(C)[C@H]3CC[C@]12C [Example 2, 1-(2-HYDROXYETHYL)PYRROLIDINE SALT OF THE URSODEOXYCHOLIC ACID]	7.90	–
C[C@H](CCC(=O)O)[C@H]1CC[C@H]2[C@@H]3[C@@H](O)C[C@@H]4C[C@H](O)CC[C@]4(C)[C@H]3CC[C@]12C [N-methyl-D-glucamine salt of the ursodeoxycholic acid]	8.06	–
C[C@H](CCC(=O)O)[C@H]1CC[C@H]2[C@@H]3[C@@H](O)C[C@@H]4C[C@H](O)CC[C@]4(C)[C@H]3CC[C@]12C [Example 1, LITHIUM SALT OF THE URSODEOXYCHOLIC ACID]	8.13	–
C[C@H](CCC(=O)O)[C@H]1CC[C@H]2[C@@H]3[C@@H](O)C[C@@H]4C[C@H](O)CC[C@]4(C)[C@H]3CC[C@]12C [Example 3, CHOLINE SALT OF THE URSODEOXYCHOLIC ACID]	7.40	–
C[C@H](CCC(=O)O)[C@H]1CC[C@H]2[C@@H]3[C@@H](O)C[C@@H]4C[C@H](O)CC[C@]4(C)[C@H]3CC[C@]12C [sodium salt of the ursodeoxycholic acid]	7.80	–
C[C@H](CCC(=O)O)[C@H]1CC[C@H]2[C@@H]3[C@@H](O)C[C@@H]4C[C@H](O)CC[C@]4(C)[C@H]3CC[C@]12C [potassium salt of the ursodeoxycholic acid]	7.90	–
C[C@H](CCC(=O)O)[C@H]1CC[C@H]2[C@@H]3[C@@H](O)C[C@@H]4C[C@H](O)CC[C@]4(C)[C@H]3CC[C@]12C [L-arginine salt of the ursodeoxycholic acid]	7.75	–
C[C@H](CCC(=O)O)[C@H]1CC[C@H]2[C@@H]3[C@@H](O)C[C@@H]4C[C@H](O)CC[C@]4(C)[C@H]3CC[C@]12C [ursodeoxycholic acid]	–	undergoes a biotransformation to litocholic acid
